We go through 11 compounds from patent US9340506B2, “Acetamide derivatives as glucokinase activators, their process and medicinal applications” (ADVINUS THERAPEUTICS LIMITED, priority 2007, dated 2016).

For orientation: EC50 means the concentration needed to bring the measured effect to its halfway point. The term Emax denotes the size of the effect at its maximum, as opposed to the concentration needed.

Data set [1] deals with purified human recombinant GK (Homo sapiens (Human), UniProt P35557). In words: Glucokinase activity assay (coupled enzymatic, G6PD/NADH absorbance at 340 nm). The note with it: for EC50: EC50 of % change in S0.5 of glucokinase for glucose, sigmoidal fit, read-out: EC50 (with respect to % ΔS0.5); for Emax: Emax of % change in S0.5 of glucokinase for glucose, vehicle S0.5 = 0%, 0 mM glucose = 100%, read-out: % Emax (with respect to % ΔS0.5). Type of data set: biochemical. An excerpt:
The glucokinase (GK) assay is a coupled enzymatic assay. GK catalyzes the first step of glycolysis, the conversion of glucose to glucose-6-phosphate (G6P) in the presence of ATP. G6P in turn is converted by glucose-6-phosphate dehydrogenase (G6PD) to 6-phosphogluconate, a process that requires NAD, resulting in NADH formation. Since the GK-catalyzed step is the rate-limiting step of this coupled enzymatic process, the rate of accumulation of 6-phosphogluconate and NADH is directly proportional to the rate of glucose phosphorylation by GK. The rate of the GK-catalyzed reaction can therefore be measured by monitoring the increase in NADH absorbance at 340 nm.
The assay is carried out according to the protocol outlined in Hariharan et al (1997), Diabetes 46: 11-16. Briefly, the test compounds are incubated in a reaction mix containing 25 mM HEPES (pH 7.2), 10 mM MgCl2, 100 mM KCl, 5 mM ATP, 2 mM DTT, 0.5 mM NAD, 1 U/mL Leuconostoc mesenteroides G6PD, 0.3 U/mL of purified human recombinant GK, and different concentrations of glucose. Enzymatic activity is calculated from the initial reaction velocity, measured from the change in NADH absorbance as a function of time.
Compounds described in formula (I), in concentration ranges from 1.0 nM to 500 μM, are tested in the purified human recombinant glucokinase assay described above.
A compound is considered to be a glucokinase activator if it, in its testable range of concentrations, yields a higher rate of glucose phosphorylation than in its absence at a particular glucose concentration, for example at 5 mM glucose.
Compounds of general formula (I) are tested in the in vitro GK enzymatic assay to monitor dose-dependent effect on glucokinase activation (in kinetic mode), as described above, at various glucose concentrations. The S0.5 of glucokinase for glucose at different concentration of each compound of interest is calculated from the following modified version of the Michaelis-Menten equation, V=Vmax [S]^n/(S0.5^n+[S]^n), where [S] is the glucose concentration and n is the Hill coefficient (taken as 1.7 to account for the sigoidal kinetics of glucokinase with respect to glucose). The S0.5 is plotted against the log of the compound concentration. The change in the S0.5 of glucokinase (ΔS0.5) for glucose is calculated by subtracting the S0.5 at each concentration of the compound from the S0.5 in the vehicle control. The ΔS0.5 is then normalized to a percent scale, where the S0.5 in the vehicle control is set to 0% and 0 mM glucose is set to 100%. The % ΔS0.5 is then plotted against the log of the compound concentration. The EC50 and Emax of % change in S0.5 is obtained from the sigoidal fit of the data. Detailed protocol has been described in our copending application no. 409/CHE/2007 which is incorporated herein by reference. Characterization data of some representative glucokinase activators of the present disclosure, which are illustrative but not limiting, are given in table I below.

For another data set, the system named is primary rat hepatocytes. The data set can be described thus: Glycogen synthesis in primary rat hepatocytes. Type of data set: cell-based. The note with it: Hepatocyte, 10 μM concentration, primary hepatocytes from male Wistar rats, D-[U14C]-glucose, 3 hours, read-out: Glycogen synthesis, fold increase over DMSO control. Here is the method:
The glycogen deposition assay was carried out with few modifications in the original protocol as described in “Biochem J. 1990 Feb. 15; 266(1): 91-102”. In brief, primary hepatocytes were collected from male Wistar rats, and were seeded in a 48-well plate at a density of 150,000 cells/well in Minimal Essential Medium (MEM) containing 10% foetal calf serum (FCS) 100 nM insulin and 10 nM dexamethasone. followed by incubation for 4 hours at 37° C. The medium was replaced with fresh MEM containing 10% FCS and 10 nM dexamethasone and the cells were further incubated for 16 hours at 37° C. Following day, the medium was replaced with fresh MEM (serum-free) containing 2 μCi/ml of D-[U^14C]-glucose in the presence of the test compound. Hepatocytes were incubated for 3 hours at 37° C. followed by washing with 150 mM NaCl. Cells were lysed with 0.1 N NaOH, and the lysate was precipitated with 80% w/v trichloroacetic acid (TCA). Cell debris was pelleted by centrifugation, the supernatant was removed, and the glycogen was precipitated with 66% ethanol followed by drying overnight. Samples were dissolved in MiliQ water and transferred to 96 well reading plate, 100 μL scintillant was added per well and the plate was read in scintillation counter (MicroBeta Trilux, Perkin Elmer). Data was expressed as fold increase in glycogen synthesis over DMSO control (untreated hepatocytes).

The conditions of data set [2]: animal efficacy models; PSN-GK1 at higher dose; cited from earlier work.

Sequence of purified human recombinant GK (P35557 whole entry): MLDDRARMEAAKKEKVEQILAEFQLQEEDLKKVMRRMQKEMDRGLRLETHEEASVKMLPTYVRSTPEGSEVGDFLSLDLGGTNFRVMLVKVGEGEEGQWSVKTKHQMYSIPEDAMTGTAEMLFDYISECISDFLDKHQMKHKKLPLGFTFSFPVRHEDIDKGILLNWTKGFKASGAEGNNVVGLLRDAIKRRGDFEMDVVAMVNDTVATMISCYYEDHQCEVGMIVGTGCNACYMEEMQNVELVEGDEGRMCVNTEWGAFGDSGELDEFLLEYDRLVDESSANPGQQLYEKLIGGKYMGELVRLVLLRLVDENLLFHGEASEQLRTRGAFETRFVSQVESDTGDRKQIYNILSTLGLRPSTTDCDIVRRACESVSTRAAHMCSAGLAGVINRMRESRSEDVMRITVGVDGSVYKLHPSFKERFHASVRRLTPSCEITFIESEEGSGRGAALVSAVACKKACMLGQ

With `O=C(O)c1cccc(Oc2cnc(NC(=O)C(OC3CCOCC3)c3ccc(S(=O)(=O)C4CC4)cc3)s2)c1` (single isomer, unassigned; (+)) [Example G8A, (+)3-[2-[[2-(4-cyclopropylsulfonylphenyl)-2-tetrahydropyran-4-yloxy-acetyl]amino]thiazol-5-yl]oxybenzoic acid], the EC50 in data set [1] amounted to 190 nM. Moreover, the fold induction at 10 µM in the data set on primary rat hepatocytes is greater than 2.5.
For Ro-28-1675, in data set [2], the “Hypoglycemia in animal studies” value was “cause hypoglycemia”.
Regarding `O=C(O)c1ccc(NC(=O)C(Oc2ccc(F)cc2F)c2ccc(S(=O)(=O)C3CC3)cc2)nc1` (single isomer, unassigned; (-)) [Example G15A, (−)6-[[2-(4-cyclopropylsulfonylphenyl)-2-(2,4-difluorophenoxy)acetyl]amino]pyridine-3-carboxylic acid], in data set [1], the concentration for a half-maximal effect (EC50) came to 480 nM and the maximal effect (Emax) was 90%. In the data set on primary rat hepatocytes, the fold induction at 10 µM was greater than 2.5.
For `Cc1ccc(Oc2cnc(NC(=O)C(OC3CCOCC3)c3ccc(S(=O)(=O)C4CC4)cc3)s2)cc1C(=O)O` (single isomer, unassigned; (+)) [Example G10A, (+)5-[2-[[2-(4-cyclopropylsulfonylphenyl)-2-tetrahydropyran-4-yloxy-acetyl]amino]thiazol-5-yl]oxy-2-methyl-benzoic acid], in data set [1], the EC50 stood at 230 nM and the Emax was 93%. The fold induction at 10 µM with primary rat hepatocytes is greater than 2.5.
Take `Cc1cc(Oc2cnc(NC(=O)C(OC3CCOCC3)c3ccc(S(=O)(=O)C4CC4)cc3)s2)ccc1C(=O)O` (single isomer, unassigned; (+)) [Example G1A, (+)4-[2-[[2-(4-cyclopropylsulfonylphenyl)-2-tetrahydropyran-4-yloxy-acetyl]amino]thiazol-5-yl]oxy-2-methyl-benzoic acid]: in data set [1], the EC50 was 87 nM and the Emax is 97%. Besides, in the data set with primary rat hepatocytes, the fold induction at 10 µM is greater than 2.5.
With `O=C(Nc1ncc(F)s1)[C@H](CC1CCOCC1)c1ccc(S(=O)(=O)C2CC2)cc1` [PSN-GK1], the “Hypoglycemia in animal studies” value in data set [2] is listed as “hypoglycemic potential”.
`COc1cc(Oc2cnc(NC(=O)C(OC3CCOCC3)c3ccc(S(=O)(=O)C4CC4)cc3)s2)ccc1C(=O)O` (single isomer, unassigned; (+)) [Example G9A, (+)4-[2-[[2-(4-cyclopropylsulfonylphenyl)-2-tetrahydropyran-4-yloxy-acetyl]amino]thiazol-5-yl]oxy-2-methoxy-benzoic acid]: in data set [1], the EC50 was determined as 270 nM and the Emax stood at 92%. The fold induction at 10 µM in the data set with primary rat hepatocytes was greater than 2.5.
On the same counts, the results for `O=C(O)c1cccc(Oc2cnc(NC(=O)C(O[C@H]3CCOC3)c3ccc(S(=O)(=O)C4CC4)cc3)s2)c1` (single isomer, unassigned; (+)) [Example G25A] are 200 nM, 95% and greater than 2.5.
On to `O=C(O)c1cccc(Oc2cnc(NC(=O)C(OC3CCOCC3)c3ccc(S(=O)(=O)C4CCCC4)nc3)s2)c1` (single isomer, unassigned; (+)) [Example G27A, (+)-3-[2-[[2-(6-cyclopentylsulfonyl-3-pyridyl)-2-tetrahydropyran-4-yloxy-acetyl]amino]thiazol-5-yl]oxybenzoic acid], for which, in data set [1], the EC50 is 130 nM and the Emax was 95%. In the data set on primary rat hepatocytes, the fold induction at 10 µM is greater than 2.5.
On the same counts, the results for `O=C(O)c1cccc(Oc2cnc(NC(=O)C(OC3CCOCC3)c3ccc(S(=O)(=O)C4CCCC4)cc3)s2)c1` (single isomer, unassigned; (+)) [Example G26A, (+)-3-[2-[[2-(4-cyclopentylsulfonylphenyl)-2-tetrahydropyran-4-yloxy-acetyl]amino]thiazol-5-yl]oxybenzoic acid] are 180 nM, 94% and greater than 2.5.
The corresponding values for `O=C(O)c1cc(Oc2cnc(NC(=O)C(OC3CCOCC3)c3ccc(S(=O)(=O)C4CC4)cc3)s2)ccc1F` (single isomer, unassigned; (+)) [Example G16A, (+)5-[2-[[2-(4-cyclopropylsulfonylphenyl)-2-tetrahydropyran-4-yloxy-acetyl]amino]thiazol-5-yl]oxy-2-fluoro-benzoic acid] are 270 nM, 93% and greater than 2.5.
